In publication PMC5218480 (PLoS ONE, 2017):

Test system: MV-4-11 cells
Experiment: Gene expression microarray analysis (Affymetrix PrimeView) and GSEA
Format: cell-based, human
Set-up: RFU PODN (11730768_x_at) / Fold change /veh PODN (11730768_x_at) / RFU LINC00158 (11744669_a_at) / Fold change /veh LINC00158 (11744669_a_at) / RFU DUSP10 (11751237_a_at) / Fold change /veh DUSP10 (11751237_a_at) / RFU ID3 (11757404_x_at) / Fold change /veh ID3 (11757404_x_at) / RFU PLEKHG5 (11737974_s_at) / Fold change /veh PLEKHG5 (11737974_s_at) / RFU LRRC4B (11730491_at) / Fold change /veh LRRC4B (11730491_at) / RFU GIMAP4 (11747438_a_at) / Fold change /veh GIMAP4 (11747438_a_at) / RFU KRT8 (11758183_x_at) / Fold change /veh KRT8 (11758183_x_at) / RFU CNN1 (11734310_a_at) / Fold change /veh CNN1 (11734310_a_at) / RFU VPS37D (11726825_at) / Fold change /veh VPS37D (11726825_at) / RFU C10orf10 (11716522_x_at) / Fold change /veh C10orf10 (11716522_x_at) / RFU KIR2DL2 /// KIR2DL4 /// KIR2DL5A /// KIR2DL5B /// KIR2DS1 /// KIR2DS2 /// KIR2DS3 /// KIR2DS4 /// KIR3DL3 /// KIR3DL3 /// KIR3DS1 (11738374_at) / Fold change /veh KIR2DL2 /// KIR2DL4 /// KIR2DL5A /// KIR2DL5B /// KIR2DS1 /// KIR2DS2 /// KIR2DS3 /// KIR2DS4 /// KIR3DL3 /// KIR3DL3 /// KIR3DS1 (11738374_at) / RFU C1QL1 (11718748_at) / Fold change /veh C1QL1 (11718748_at) / RFU TMPRSS4 (11747572_a_at) / Fold change /veh TMPRSS4 (11747572_a_at) / RFU HAMP (11756126_x_at) / Fold change /veh HAMP (11756126_x_at) / RFU RNFT2 (11725882_a_at) / Fold change /veh RNFT2 (11725882_a_at) / RFU NR4A2 (11747474_a_at) / Fold change /veh NR4A2 (11747474_a_at) / RFU ABCC12 (11746883_a_at) / Fold change /veh ABCC12 (11746883_a_at) / RFU TMEM136 (11760407_x_at) / Fold change /veh TMEM136 (11760407_x_at) / RFU CLDN22 /// WWC2 (11732394_at) / Fold change /veh CLDN22 /// WWC2 (11732394_at) / RFU HLA-DPB1 (11760878_x_at) / Fold change /veh HLA-DPB1 (11760878_x_at) / RFU SPINT1 (11716480_a_at) / Fold change /veh SPINT1 (11716480_a_at) / RFU GAP43 (11754022_s_at) / Fold change /veh GAP43 (11754022_s_at) / RFU A4GNT (11735810_at) / Fold change /veh A4GNT (11735810_at) / RFU PRB3 (11715151_x_at) / Fold change /veh PRB3 (11715151_x_at) / RFU TUBB4B (11761932_at) / Fold change /veh TUBB4B (11761932_at) / RFU CAPN14 (11732068_a_at) / Fold change /veh CAPN14 (11732068_a_at) / RFU TMCC2 (11721928_a_at) / Fold change /veh TMCC2 (11721928_a_at) / RFU IRGQ (11745062_a_at) / Fold change /veh IRGQ (11745062_a_at) / RFU FAM174B (11720279_a_at) / Fold change /veh FAM174B (11720279_a_at) / RFU TMPRSS4 (11748680_a_at) / Fold change /veh TMPRSS4 (11748680_a_at) / RFU FAM212B (11763350_a_at) / Fold change /veh FAM212B (11763350_a_at) / RFU PLEKHG5 (11743358_a_at) / Fold change /veh PLEKHG5 (11743358_a_at) / RFU ZSCAN30 (11745921_a_at) / Fold change /veh ZSCAN30 (11745921_a_at) / RFU CMKLR1 (11741424_a_at) / Fold change /veh CMKLR1 (11741424_a_at) / RFU LOC101060620 /// MAPK8IP1 (11723275_at) / Fold change /veh LOC101060620 /// MAPK8IP1 (11723275_at) / RFU SPTSSB (11747773_x_at) / Fold change /veh SPTSSB (11747773_x_at) / RFU PRSS12 (11739890_at) / Fold change /veh PRSS12 (11739890_at) / RFU BIN1 (11741810_x_at) / Fold change /veh BIN1 (11741810_x_at) / RFU WNT11 (11732464_a_at) / Fold change /veh WNT11 (11732464_a_at) / RFU C10orf10 (11716521_a_at) / Fold change /veh C10orf10 (11716521_a_at) / RFU C5orf56 (11738089_at) / Fold change /veh C5orf56 (11738089_at) / RFU CYB561 (11721691_x_at) / Fold change /veh CYB561 (11721691_x_at) / RFU ANKRD19P (11752326_a_at) / Fold change /veh ANKRD19P (11752326_a_at) / RFU OR2T12 /// OR2T33 /// OR2T8 (11738714_s_at) / Fold change /veh OR2T12 /// OR2T33 /// OR2T8 (11738714_s_at) / RFU VCAN (11748164_a_at) / Fold change /veh VCAN (11748164_a_at) / RFU JSRP1 (11732532_at) / Fold change /veh JSRP1 (11732532_at) / RFU KRTAP10-11 (11738290_x_at) / Fold change /veh KRTAP10-11 (11738290_x_at) / RFU MYO3A (11730013_a_at) / Fold change /veh MYO3A (11730013_a_at) / RFU EBF3 (11725865_a_at) / Fold change /veh EBF3 (11725865_a_at) / RFU CAMK2N1 (11719241_x_at) / Fold change /veh CAMK2N1 (11719241_x_at) / RFU C5orf56 (11738088_a_at) / Fold change /veh C5orf56 (11738088_a_at) / RFU OLFML3 (11715873_a_at) / Fold change /veh OLFML3 (11715873_a_at) / RFU LOC100653217 /// NTM (11731650_a_at) / Fold change /veh LOC100653217 /// NTM (11731650_a_at) / RFU MAPK11 (11762145_a_at) / Fold change /veh MAPK11 (11762145_a_at) / RFU FIZ1 (11724087_x_at) / Fold change /veh FIZ1 (11724087_x_at) / RFU OASL (11726364_x_at) / Fold change /veh OASL (11726364_x_at) / RFU SOX15 (11748057_x_at) / Fold change /veh SOX15 (11748057_x_at) / RFU CD79A (11719716_a_at) / Fold change /veh CD79A (11719716_a_at) / RFU HIST1H1D (11736915_at) / Fold change /veh HIST1H1D (11736915_at) / RFU CASKIN2 (11723855_a_at) / Fold change /veh CASKIN2 (11723855_a_at) / RFU LOC730098 (11760151_x_at) / Fold change /veh LOC730098 (11760151_x_at) / RFU OR4N2 (11742367_at) / Fold change /veh OR4N2 (11742367_at) / RFU PRRT2 (11749266_a_at) / Fold change /veh PRRT2 (11749266_a_at) / RFU SNX32 (11753110_a_at) / Fold change /veh SNX32 (11753110_a_at) / RFU CDHR5 (11726645_a_at) / Fold change /veh CDHR5 (11726645_a_at) / RFU RCAN1 (11760418_a_at) / Fold change /veh RCAN1 (11760418_a_at) / RFU FAM167A (11723789_a_at) / Fold change /veh FAM167A (11723789_a_at) / RFU FAM26E (11764081_at) / Fold change /veh FAM26E (11764081_at) / RFU ISYNA1 (11749810_s_at) / Fold change /veh ISYNA1 (11749810_s_at) / RFU ACY1 (11761880_at) / Fold change /veh ACY1 (11761880_at) / RFU 11764098_at / Fold change /veh 11764098_at / RFU SAMD14 (11745864_x_at) / Fold change /veh SAMD14 (11745864_x_at) / RFU NPB (11741838_a_at) / Fold change /veh NPB (11741838_a_at) / RFU TMPRSS6 (11731388_a_at) / Fold change /veh TMPRSS6 (11731388_a_at) / RFU KRTAP10-2 (11738614_at) / Fold change /veh KRTAP10-2 (11738614_at) / RFU ARHGAP8 /// PRR5-ARHGAP8 (11727945_x_at) / Fold change /veh ARHGAP8 /// PRR5-ARHGAP8 (11727945_x_at) / RFU KRTAP5-7 /// NADSYN1 (11734609_at) / Fold change /veh KRTAP5-7 /// NADSYN1 (11734609_at) / RFU RASL12 (11751679_a_at) / Fold change /veh RASL12 (11751679_a_at) / RFU CDKN2B (11736163_a_at) / Fold change /veh CDKN2B (11736163_a_at) / RFU PRF1 (11729649_at) / Fold change /veh PRF1 (11729649_at) / RFU, ZNF638 /// ZNF638-IT1 / Fold change vs veh, ZNF638 /// ZNF638-IT1 / RFU, PANK3 / Fold change vs veh, PANK3 / RFU, SH3YL1 / Fold change vs veh, SH3YL1 / RFU, ZEB2 / Fold change vs veh, ZEB2 / RFU, NRIP1 / Fold change vs veh, NRIP1 / RFU, PTTG1IP / Fold change vs veh, PTTG1IP / RFU, CAPN2 / Fold change vs veh, CAPN2 / RFU, MED14 / Fold change vs veh, MED14 / RFU, SNORA58 / Fold change vs veh, SNORA58 / RFU, C1orf63 / Fold change vs veh, C1orf63 / RFU, LRRFIP1 / Fold change vs veh, LRRFIP1 / RFU, NDUFAF7 / Fold change vs veh, NDUFAF7 / RFU, SLC12A2 / Fold change vs veh, SLC12A2 / RFU, IBTK / Fold change vs veh, IBTK / RFU, ESF1 / Fold change vs veh, ESF1 / Fold change vs veh, TMEM50B / RFU, TAOK1 / Fold change vs veh, TAOK1 / RFU, ACBD3 / Fold change vs veh, ACBD3 / RFU, TMA16 / Fold change vs veh, TMA16 / RFU, RWDD3 / Fold change vs veh, RWDD3 / RFU, BCAT1 / Fold change vs veh, BCAT1 / RFU, EDEM3 / Fold change vs veh, EDEM3 / RFU, TMEM33 / Fold change vs veh, TMEM33 / RFU, WDR75 / Fold change vs veh, WDR75 / RFU, AHCTF1 / Fold change vs veh, AHCTF1 / RFU, TFRC / Fold change vs veh, TFRC / RFU, ZDHHC17 / Fold change vs veh, ZDHHC17 / RFU, NOM1 / Fold change vs veh, NOM1 / RFU, ARL8B / Fold change vs veh, ARL8B / RFU, ZBTB11 / Fold change vs veh, ZBTB11 / RFU, TAMM41 / Fold change vs veh, TAMM41 / RFU, KIAA1704 /// LOC100996395 / Fold change vs veh, KIAA1704 /// LOC100996395 / RFU, ING1 / Fold change vs veh, ING1 / RFU, TRMT61B / Fold change vs veh, TRMT61B / RFU, FUBP3 / Fold change vs veh, FUBP3 / RFU, TP53 / Fold change vs veh, TP53 / RFU, TNKS2 / Fold change vs veh, TNKS2 / RFU, ZFP14 / Fold change vs veh, ZFP14 / RFU, ACTR2 / Fold change vs veh, ACTR2 / RFU, PPP3R1 / Fold change vs veh, PPP3R1 / RFU, PIK3R1 / Fold change vs veh, PIK3R1 / RFU, HNRNPA1 / Fold change vs veh, HNRNPA1 / RFU, RNF170 / Fold change vs veh, RNF170 / RFU, ZNF28 / Fold change vs veh, ZNF28 / RFU, RNGTT / Fold change vs veh, RNGTT / RFU, OGT / Fold change vs veh, OGT / RFU, BRD1 / Fold change vs veh, BRD1 / RFU, MARS / Fold change vs veh, MARS / RFU, ZNF655 / Fold change vs veh, ZNF655 / RFU, FAHD1 / Fold change vs veh, FAHD1 / RFU, BDP1 / Fold change vs veh, BDP1 / RFU, LRRCC1 / Fold change vs veh, LRRCC1 / RFU, ARID1A / Fold change vs veh, ARID1A / RFU, ZNF146 / Fold change vs veh, ZNF146 / RFU, ZNF330 / Fold change vs veh, ZNF330 / RFU, GPN3 / Fold change vs veh, GPN3 / RFU, C9orf123 / Fold change vs veh, C9orf123 / RFU, N4BP2L2 / Fold change vs veh, N4BP2L2 / RFU, ARFIP1 / Fold change vs veh, ARFIP1 / RFU, FAM179B / Fold change vs veh, FAM179B / RFU, BCL10 / Fold change vs veh, BCL10 / RFU, UHRF1BP1L / Fold change vs veh, UHRF1BP1L / RFU, BET1 / Fold change vs veh, BET1 / RFU, CNOT2 / Fold change vs veh, CNOT2 / RFU, ZNF268 / Fold change vs veh, ZNF268 / Fold change vs veh, ZNF507 / RFU, DGCR2 / Fold change vs veh, DGCR2 / RFU, WDSUB1 / Fold change vs veh, WDSUB1 / Fold change vs veh, HSP90B1 /// MIR3652 / RFU, ADSS / Fold change vs veh, ADSS / RFU, GK / Fold change vs veh, GK / RFU, ZNF148 / Fold change vs veh, ZNF148 / RFU, TAF9 / Fold change vs veh, TAF9 / RFU, SLC1A5 / Fold change vs veh, SLC1A5 / RFU, SLMO2 / Fold change vs veh, SLMO2 / RFU, ABCC4 / Fold change vs veh, ABCC4 / RFU, LOC101060439 /// RAP1B / Fold change vs veh, LOC101060439 /// RAP1B / RFU, RFX7 / Fold change vs veh, RFX7 / RFU, GTPBP10 / Fold change vs veh, GTPBP10 / RFU, CNEP1R1 / Fold change vs veh, CNEP1R1 / RFU, BIVM-ERCC5 /// ERCC5 / Fold change vs veh, BIVM-ERCC5 /// ERCC5 / RFU, ILF3 / Fold change vs veh, ILF3 / RFU 11762660_at / Fold change /veh 11762660_at / RFU VCAN (11757783_s_at) / Fold change /veh VCAN (11757783_s_at) / RFU DDX43 (11728927_at) / Fold change /veh DDX43 (11728927_at) / RFU KRT8 (11758188_x_at) / Fold change /veh KRT8 (11758188_x_at) / RFU NKD1 (11759106_at) / Fold change /veh NKD1 (11759106_at) / RFU SRD5A1 (11742802_a_at) / Fold change /veh SRD5A1 (11742802_a_at) / RFU TPSAB1 /// TPSB2 (11721975_s_at) / Fold change /veh TPSAB1 /// TPSB2 (11721975_s_at) / RFU GSTM3 (11746129_a_at) / Fold change /veh GSTM3 (11746129_a_at) / RFU IL23R (11737362_x_at) / Fold change /veh IL23R (11737362_x_at) / RFU TMEM51 (11727254_a_at) / Fold change /veh TMEM51 (11727254_a_at) / RFU PIWIL2 (11732686_x_at) / Fold change /veh PIWIL2 (11732686_x_at) / RFU ORM1 (11744905_x_at) / Fold change /veh ORM1 (11744905_x_at) / RFU CCDC152 (11743942_at) / Fold change /veh CCDC152 (11743942_at) / RFU ECM1 (11717891_a_at) / Fold change /veh ECM1 (11717891_a_at) / RFU IL23R (11748794_a_at) / Fold change /veh IL23R (11748794_a_at) / RFU TNFAIP8L3 (11732012_x_at) / Fold change /veh TNFAIP8L3 (11732012_x_at) / RFU MBOAT4 (11741988_at) / Fold change /veh MBOAT4 (11741988_at) / RFU 11764193_at / Fold change /veh 11764193_at / RFU TMEM53 (11763286_at) / Fold change /veh TMEM53 (11763286_at) / RFU MAGEB2 (11727129_at) / Fold change /veh MAGEB2 (11727129_at) / RFU TMEM200A (11744735_a_at) / Fold change /veh TMEM200A (11744735_a_at) / RFU CCDC152 (11751479_a_at) / Fold change /veh CCDC152 (11751479_a_at) / RFU FAM211A (11726209_a_at) / Fold change /veh FAM211A (11726209_a_at) / RFU RGS16 (11746705_a_at) / Fold change /veh RGS16 (11746705_a_at) / RFU VCAN (11755009_s_at) / Fold change /veh VCAN (11755009_s_at) / RFU RHOB (11743442_s_at) / Fold change /veh RHOB (11743442_s_at) / RFU RGS16 (11720943_a_at) / Fold change /veh RGS16 (11720943_a_at) / RFU RGS16 (11720944_at) / Fold change /veh RGS16 (11720944_at) / RFU, VPS4B / Fold change vs veh, VPS4B / RFU, CREB1 / Fold change vs veh, CREB1 / RFU, DNAJC13 / Fold change vs veh, DNAJC13 / RFU, GNAQ / Fold change vs veh, GNAQ / RFU, CDK5R1 / Fold change vs veh, CDK5R1 / RFU, ZRANB3 / Fold change vs veh, ZRANB3 / RFU, CUL4A / Fold change vs veh, CUL4A / RFU, CCNY / Fold change vs veh, CCNY / RFU, UFL1 / Fold change vs veh, UFL1 / RFU, COG3 / Fold change vs veh, COG3 / RFU, DIAPH2 / Fold change vs veh, DIAPH2 / RFU, SKA2 / Fold change vs veh, SKA2 / RFU, AFF3 / Fold change vs veh, AFF3 / RFU, LMF1 / Fold change vs veh, LMF1 / RFU, IPO11 / Fold change vs veh, IPO11 / RFU, DFFB / Fold change vs veh, DFFB / RFU, FOXP1 / Fold change vs veh, FOXP1 / RFU, CARD8 / Fold change vs veh, CARD8 / RFU, STRN3 / Fold change vs veh, STRN3 / RFU, ADK / Fold change vs veh, ADK / RFU, RASSF2 / Fold change vs veh, RASSF2 / RFU, WIPF1 / Fold change vs veh, WIPF1 / RFU, LARP1B / Fold change vs veh, LARP1B / RFU, RASA1 / Fold change vs veh, RASA1 / RFU, RB1 / Fold change vs veh, RB1 / RFU, PPFIA1 / Fold change vs veh, PPFIA1 / RFU, MAT2A / Fold change vs veh, MAT2A / RFU, CCT5 / Fold change vs veh, CCT5 / RFU, WDR92 / Fold change vs veh, WDR92 / RFU, CUX1 / Fold change vs veh, CUX1 / RFU, TTC7A / Fold change vs veh, TTC7A / RFU, TMEM135 / Fold change vs veh, TMEM135 / RFU, DEPTOR / Fold change vs veh, DEPTOR / RFU, CPM / Fold change vs veh, CPM / RFU, DNAJB6 / Fold change vs veh, DNAJB6 / RFU, CACNA2D3 / Fold change vs veh, CACNA2D3 / RFU, DTX4 / Fold change vs veh, DTX4 / RFU, TFCP2 / Fold change vs veh, TFCP2 / RFU, GMCL1 /// GMCL1P1 / Fold change vs veh, GMCL1 /// GMCL1P1 / RFU, AEBP2 / Fold change vs veh, AEBP2 / RFU, SNHG1 /// SNORD22 /// SNORD25 /// SNORD26 /// SNORD27 /// SNORD28 /// SNORD29 /// SNORD31 / Fold change vs veh, SNHG1 /// SNORD22 /// SNORD25 /// SNORD26 /// SNORD27 /// SNORD28 /// SNORD29 /// SNORD31 / Fold change (Aza/veh), C12orf56 (ProbeSet 11735607_a_at) / Fold change (ACY-1035/veh), C12orf56 (ProbeSet 11735607_a_at) / Fold change (Aza/veh), FGFR1OP (ProbeSet 11751329_s_at) / Fold change (ACY-1035/veh), FGFR1OP (ProbeSet 11751329_s_at) / Fold change (Aza/veh), VPS36 (ProbeSet 11739960_a_at) / Fold change (ACY-1035/veh), VPS36 (ProbeSet 11739960_a_at) / RFU SYPL1 (11715823_x_at) / Fold change /veh SYPL1 (11715823_x_at) / RFU IGFBP7 (11715501_s_at) / Fold change /veh IGFBP7 (11715501_s_at) / RFU REEP3 (11722064_at) / Fold change /veh REEP3 (11722064_at) / RFU IGLL1 (11728026_x_at) / Fold change /veh IGLL1 (11728026_x_at): dose or concentration left out as unconfirmed
Conditions: ProbeSet 11728879_at; LIST B

SMILES: Nc1ccc(-c2cccs2)cc1NC(=O)c1ccc2c(c1)cc(C1CC1)n2CCN1CCOCC1 [ACY-1035]
- Fold change vs veh, PPP3R1: 0.99
